From patent US20080293774A1, “Treatment of the Symptoms of Bladder Irritation” (UROGENE, priority 2005, published 2008)

Assays:
[1] = system: rhythmic reflex contractions of the bladder; experiment: complete bladder-outlet obstruction (isovolumetric) model of overactive bladder in the rat; assay type: in vivo, female Wistar rats; conditions: i.v.; for maximum intravesical pressure: all doses tested (HP183 0.3, 1, 3 mg/kg; HP184 1, 3, 10 mg/kg; HP749 1.6, 3.5, 10.5 mg/kg)
Excerpt: The compounds of Table 1 have been evaluated in a conventional animal model of overactive bladder: the complete bladder-outlet obstruction model in the rat, referred to as “isovolumetric” model (K. Sugaya, Y. Ogawa, O, Nishizawa, W C De Groat, Decrease in intravesical saline volume during isovolumetric cystometry in the rat, Neurourol. Urodyn, 1997, 16:125-132). In this model, rhythmic reflex contractions of the bladder are induced in female Wistar rats in which the urethra has been ligatured.
The rats are anaesthetized and implanted with a jugular catheter for the intravenous administration of the compounds. A transurethral catheter is introduced into the bladder, through the bladder dome, so as to allow the infusion of a saline solution and measurement of the intravesical pressure. The urethra is ligatured in order to close off the bladder.
The bladder is infused (50 μl/min) via the transurethral catheter with a saline solution until uninhibited rhythmic contractions appear. The infusion is then stopped and the intravesical pressure is measured for a period of 60 min preceding the injection of the study compounds. The compounds to be studied are then injected via the jugular catheter, and the intravesical pressure is recorded for a period of 60 min. The intravenous administration of the compounds during this test limits the metabolization of HP749 and of HP184 to HP748 and HP183, respectively. The animals are sacrificed at the end of the experiment by means of an overdose of pentobarbital. A scheme of the experiment is given below.
The data from the experiment are analysed with the ELPHY software (a free version of which is accessible at the following address: http://www.unic.cnrs-gif.fr/software/software.htm). The parameters analysed are as follows: • Maximum intravesical pressure (MP, expressed in mmHg) • Threshold pressure (ThP, expressed in mmHg) compared with the carrier (FIG. 2B).

[2] = system: bladder contractions; conditions: rats suffering from bladder irritation; cited from earlier work
[3] = human; cited from earlier work
[4] = all doses tested (HP183 0.3, 1, 3 mg/kg; HP184 1, 3, 10 mg/kg), 60 min recording, compared with the carrier
[5] = 60 min recording, compared with the carrier

Structure (SMILES): Cc1cn(Nc2ccncc2F)c2ccccc12 [HP183, N-(3-fluoro-4-pyridinyl)-3-methyl-1H-indol-1-amine]
- frequency of rhythmic isovolumetric contractions [1, 4]: no statistically significant effect
- maximum intravesical pressure [1, 5]: no statistically significant effect

Structure (SMILES): CCCN(c1ccncc1F)n1cc(C)c2ccccc21 [HP184, N-(3-fluoro-4-pyridinyl)-N-propyl-3-methyl-1H-indol-1-amine]
- frequency of bladder contractions related to bladder irritation [2]: slightly decreasing
- frequency of rhythmic isovolumetric contractions [1, 4]: no statistically significant effect
- maximum intravesical pressure [1, 5]: no statistically significant effect

Structure (SMILES): c1ccc2c(c1)ccn2Nc1ccncc1 [HP748, N-(4-pyridinyl)-1H-indol-1-amine]
- frequency of bladder contractions ([1]; from the first dose of 0.3 mg/kg, dose-dependent): considerably and statistically significantly decreased

Structure (SMILES): CCCN(c1ccncc1)n1ccc2ccccc21 [HP749, N-propyl-N-(4-pyridinyl)-1H-indol-1-amine]
- metabolite formed by biotransformation [3]: metabolized in human to compound (I)
- maximum intravesical pressure [1, 5]: did not demonstrate any effect
- frequency of rhythmic isovolumetric contractions ([1]; highest dose (10.5 mg/kg)): increasing
- frequency of rhythmic isovolumetric contractions ([1]; lowest dose (HP749 1.6 mg/kg)): decreasing
